Results as given in patent publication US8815909B2, “Diaminocyclohexane compounds and uses thereof” (Bristol-Myers Squibb Company, priority 2011, dated 2014).
pEC50: −log10 of the molar value. Where a name gives a salt, the structure may show the parent alone.

What follows are compounds tested against T1, human Y4 receptor (Homo sapiens, UniProt P50391) (assay: NPY4 cAMP HTRF Agonist Assay (inhibitory cAMP assay, Gi activation by Y4 agonism)). Settings: human Y4 stable CHO clonal cells, forskolin + IBMX; read-out: NPY4 cAMP HTRF Agonist Assay EC50.
T1 construct: expressed in transfected cells
Type: cell-based
Method in brief: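 Y4 agonism read as lowered forskolin-stimulated cAMP (HTRF, 1 h detection at room temperature). Stable human Y4 CHO clone, 5000 cells/well, incubated 30 min at room temperature with compounds plus forskolin and IBMX in PBS.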

T1 sequence (P50391 whole entry): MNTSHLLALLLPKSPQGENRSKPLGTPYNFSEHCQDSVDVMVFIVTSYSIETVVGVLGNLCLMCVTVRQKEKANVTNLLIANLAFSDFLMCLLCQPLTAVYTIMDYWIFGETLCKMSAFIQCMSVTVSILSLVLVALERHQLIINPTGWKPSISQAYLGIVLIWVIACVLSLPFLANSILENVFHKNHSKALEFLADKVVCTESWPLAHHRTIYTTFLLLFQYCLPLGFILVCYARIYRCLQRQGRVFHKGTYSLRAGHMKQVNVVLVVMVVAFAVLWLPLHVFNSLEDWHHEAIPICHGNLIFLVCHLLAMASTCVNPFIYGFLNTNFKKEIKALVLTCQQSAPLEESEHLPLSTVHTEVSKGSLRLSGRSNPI

pEC50 | Compound
9.10 | O=C(NC1CC1)c1cccc(-c2cnc(N[C@@H]3CCCC[C@H]3N[C@H]3CCCN(c4ccc(C(F)(F)F)nc4)C3)o2)c1 [Example 99, N-cyclopropyl-(3-(2-((1R,2R)-2((S)-1-(6-trifluoromethyl)pyridin-3yl)piperidin-3-ylamino)cyclohexylamino)oxazol-5-yl)benzamide]
8.70 | CCOC(=O)Nc1cccc(-c2cnc(N[C@@H]3CCCC[C@H]3N[C@H]3CCCN(c4ccc(C(F)(F)F)cc4)C3)o2)c1 [Example 101, Ethyl (3-(2-((1R,2R)-2(S)-1-(4-trifluoromethyl)phenylpiperidin-3-ylamino)cyclohexylamino)oxazol-5-yl)phenylcarbamate]
9.70 | NC(=O)c1cccc(-c2cnc(N[C@@H]3CCCC[C@H]3N[C@H]3CCCN(c4ccc(C(F)(F)F)cc4)C3)o2)c1 [Example 104, (3-(2-((1R,2R)-2((S)-1-(4-trifluoromethyl)phenyl)piperidin-3-ylamino)cyclohexylamino)oxazol-5-yl)benzamide]
6.92 | CC(C)(C)OC(=O)/C=C/c1ccnc(N[C@@H]2CCCC[C@H]2N[C@H]2CCCN(c3ccc(C#N)cc3)C2)c1 [Example 109, (E)-tert-butyl 3-(2-(((1R,2R)-2-(((S)-1-(4-cyanophenyl)piperidin-3-yl)amino)cyclohexyl)amino)pyridin-4-yl)acrylate]
7.04 | N#Cc1cnc(N[C@@H]2CCCC[C@H]2N[C@H]2CCCN(c3ccc(C(F)(F)F)cc3)C2)o1 [Example 113, 2-(((1R,2R)-2-(((S)-1-(4-(trifluoromethyl)phenyl)piperidin-3-yl)amino)cyclohexyl)amino)oxazole-5-carbonitrile]

Continued, compound first:

Compound | pEC50
C[C@]1(N[C@@H]2CCCC[C@H]2Nc2ncc(-c3ccc(OC(F)(F)F)cc3)o2)CCCN(c2ccc([N+](=O)[O-])cc2)C1 [Example 96, (1R,2R)—N1-((S)-3-Methyl-1-(4-nitrophenyl)piperidin-3-yl)-N2-(5-(4-(trifluoromethoxy)phenyl)oxazol-2-yl)cyclohexane-1,2-diamine bis-trifluoroacetate] | 9.00
NC(=O)c1cccc(-c2cnc(N[C@@H]3CCCC[C@H]3N[C@H]3CCCN(c4cnc(C(F)(F)F)nc4)C3)o2)c1 [Example 97, 3-(2-(((1R,2R)-2-(((S)-1-(2-(trifluoromethyl)pyrimidin-5-yl)piperidin-3-yl)amino)cyclohexyl)amino)oxazol-5-yl)benzamide] | 8.22
CCOC(=O)Nc1cccc(-c2cnc(N[C@@H]3CCCC[C@H]3N[C@H]3CCCN(c4cnc(C(F)(F)F)cn4)C3)o2)c1 [Example 98, Ethyl 3-(2-((1R,2R)-2-((S)-1-(5-(trifluoromethyl)pyrazin-2-yl)piperidin-3-ylamino)cyclohexylamino)oxazol-5-yl)phenylcarbamate] | 9.15
COC(=O)Nc1cccc(-c2cnc(N[C@@H]3CCCC[C@H]3N[C@H]3CCCN(c4ccc(C(F)(F)F)cc4)C3)o2)c1 [Example 100, Methyl (3-(2-((1R,2R)-2(S)-1-(4-trifluoromethyl)phenylpiperidin-3-ylamino)cyclohexylamino)oxazol-5-yl)phenylcarbamate] | 8.52
CCOC(=O)Nc1cccc(-c2cnc(N[C@@H]3CCCC[C@H]3N[C@H]3CCCN(c4ccc(C(F)(F)F)nc4)C3)o2)c1 [Example 102] | 9.40
COC(=O)Nc1cccc(-c2cnc(N[C@@H]3CCCC[C@H]3N[C@H]3CCCN(c4cnc(C(F)(F)F)nc4)C3)o2)c1 [Example 103, Methyl (3-(2-((1R,2R)-2((S)-1-(2-trifluoromethyl)pyrimidin-5-yl)piperidin-3-ylamino)cyclohexylamino)oxazol-5-yl)phenylcarbamate] | 8.52
CNC(=O)c1cccc(-c2cnc(N[C@@H]3CCCC[C@H]3N[C@H]3CCCN(c4ccc(C(F)(F)F)cc4)C3)o2)c1 [Example 105, N-Methyl (3-(2-((1R,2R)-2((S)-1-(4-trifluoromethyl)phenyl)piperidin-3-ylamino)cyclohexylamino)oxazol-5-yl)benzamide] | 9.70
C[C@]1(N[C@@H]2CCCC[C@H]2Nc2ncc(-c3cccc(C(N)=O)c3)o2)CCCN(c2ccc(C(F)(F)F)cc2)C1 [Example 106, 3-(2-(((1R,2R)-2-(((S)-3-Methyl-1-(4-(trifluoromethyl)phenyl)piperidin-3-yl)amino)cyclohexyl)amino)oxazol-5-yl)benzamide] | 9.52
CCOC(=O)Nc1cccc(-c2cnc(N[C@@H]3CCCC[C@H]3N[C@H]3CCCN(c4cnc(C(F)(F)F)nc4)C3)o2)c1 [Example 107, Ethyl (3-(2-(((1R,2R)-2-(((S)-1-(2-(trifluoromethyl)pyrimidin-5-yl)piperidin-3-yl)amino)cyclohexyl)amino)oxazol-5-yl)phenyl)carbamate] | 8.40
CC(C)(C)OC(=O)/C=C\c1ccnc(N[C@@H]2CCCC[C@H]2N[C@H]2CCCN(c3ccc(C#N)cc3)C2)c1 [Example 108, (Z)-tert-butyl 3-(2-(((1R,2R)-2-(((S)-1-(4-cyanophenyl)piperidin-3-yl)amino)cyclohexyl)amino)pyridin-4-yl)acrylate] | 7.68
N#Cc1ccc(N2CCC[C@H](N[C@@H]3CCCC[C@H]3Nc3cc(/C=C\C(N)=O)ccn3)C2)cc1 [Example 110, (Z)-3-(2-(((1R,2R)-2-(((S)-1-(4-cyanophenyl)piperidin-3-yl)amino)cyclohexyl)amino)pyridin-4-yl)acrylamide] | 6.29
CC(C)(C)C(=O)OCc1ccnc(N[C@@H]2CCCC[C@H]2N[C@H]2CCCN(c3ccc(C#N)cc3)C2)c1 [Example 111, (2-(((1R,2R)-2-(((S)-1-(4-cyanophenyl)piperidin-3-yl)amino)cyclohexyl)amino)pyridin-4-yl)methyl pivalate] | 6.25
O=C(Nc1nncs1)c1ccnc(N[C@@H]2CCCC[C@H]2N[C@H]2CCCN(c3ccc(C(F)(F)F)cc3)C2)c1 [Example 112] | 6.23
N#Cc1ccnc(N[C@@H]2CCCC[C@H]2N[C@H]2CCCN(c3ccc(C(F)(F)F)cc3)C2)c1 [Example 114, 2-(((1R,2R)-2-(((S)-1-(4-(trifluoromethyl)phenyl)piperidin-3-yl)amino)cyclohexyl)amino)isonicotinonitrile, bis trifluoroacetic acid salt] | 7.15

Same assay, conditions: second TABLE 1, R2 is Phenyl-CF3; read-out: hY4 CAMP EC50

pEC50 | Compound
7.42 | CC(C)(C)NC(=O)c1cccc(-c2cnc(N[C@@H]3CCCC[C@H]3N[C@H]3CCCN(c4ccc(C(F)(F)F)cc4)C3)o2)c1 [Example 118]
6.04 | FC(F)(F)Oc1ccc(-n2nnc(N[C@@H]3CCCC[C@H]3N[C@H]3CCCN(c4ccc(C(F)(F)F)cc4)C3)n2)cc1 [Example 121]
6.64 | CC(C)(C)NC(=O)c1cccc(-c2ccnc(N[C@@H]3CCCC[C@H]3N[C@H]3CCCN(c4ccc(C(F)(F)F)cc4)C3)c2)c1 [Example 128]
7.39 | OCc1cccc(-c2ccnc(N[C@@H]3CCCC[C@H]3N[C@H]3CCCN(c4ccc(C(F)(F)F)cc4)C3)c2)c1 [Example 129]
9.00 | CNC(=O)c1cccc(-c2ccnc(N[C@@H]3CCCC[C@H]3N[C@H]3CCCN(c4ccc(C(F)(F)F)cc4)C3)c2)c1 [Example 130]
5.95 | CN(C)Cc1cccc(-c2ccnc(N[C@@H]3CCCC[C@H]3N[C@H]3CCCN(c4ccc(C(F)(F)F)cc4)C3)c2)c1 [Example 131]
8.52 | COC(=O)Nc1cccc(-c2ccnc(N[C@@H]3CCCC[C@H]3N[C@H]3CCCN(c4ccc(C(F)(F)F)cc4)C3)c2)c1 [Example 132]
7.89 | CC(C)OC(=O)Nc1cccc(-c2ccnc(N[C@@H]3CCCC[C@H]3N[C@H]3CCCN(c4ccc(C(F)(F)F)cc4)C3)c2)c1 [Example 134]
8.70 | O=C(Nc1cccc(-c2ccnc(N[C@@H]3CCCC[C@H]3N[C@H]3CCCN(c4ccc(C(F)(F)F)cc4)C3)c2)c1)OCCF [Example 137]

Further lines, the compound ahead of its results:

Compound | pEC50
COC(=O)c1cccc(-c2cnc(N[C@@H]3CCCC[C@H]3N[C@H]3CCCN(c4ccc(C(F)(F)F)cc4)C3)o2)c1 [Example 115] | 7.17
O=C(O)c1cccc(-c2cnc(N[C@@H]3CCCC[C@H]3N[C@H]3CCCN(c4ccc(C(F)(F)F)cc4)C3)o2)c1 [Example 116] | 6.05
O=C(NC1CC1)c1cccc(-c2cnc(N[C@@H]3CCCC[C@H]3N[C@H]3CCCN(c4ccc(C(F)(F)F)cc4)C3)o2)c1 [Example 117] | 9.00
NC(=O)c1cccc(-c2ccnc(N[C@@H]3CCCC[C@H]3N[C@H]3CCCN(c4ccc(C(F)(F)F)cc4)C3)c2)c1 [Example 119] | 8.40
C[C@]1(N[C@@H]2CCCC[C@H]2Nc2cc(-c3cccc(C(N)=O)c3)ccn2)CCCN(c2ccc(C(F)(F)F)cc2)C1 [Example 120] | 8.52
FC(F)(F)c1ccc(N2CCC[C@H](N[C@@H]3CCCC[C@H]3Nc3ncc(-c4cccc(-c5nnn[nH]5)c4)o3)C2)cc1 [Example 122] | 6.50
CN(C)C(=O)c1cccc(-c2cnc(N[C@@H]3CCCC[C@H]3N[C@H]3CCCN(c4ccc(C(F)(F)F)cc4)C3)o2)c1 [Example 123] | 6.63
CCNC(=O)c1cccc(-c2cnc(N[C@@H]3CCCC[C@H]3N[C@H]3CCCN(c4ccc(C(F)(F)F)cc4)C3)o2)c1 [Example 124] | 8.70
CC(C)NC(=O)c1cccc(-c2cnc(N[C@@H]3CCCC[C@H]3N[C@H]3CCCN(c4ccc(C(F)(F)F)cc4)C3)o2)c1 [Example 125] | 7.96
CC(C)(O)c1cccc(-c2ccnc(N[C@@H]3CCCC[C@H]3N[C@H]3CCCN(c4ccc(C(F)(F)F)cc4)C3)c2)c1 [Example 126] | 7.32
NCc1cccc(-c2ccnc(N[C@@H]3CCCC[C@H]3N[C@H]3CCCN(c4ccc(C(F)(F)F)cc4)C3)c2)c1 [Example 127] | 7.10
O=C1OCCN1c1cccc(-c2cnc(N[C@@H]3CCCC[C@H]3N[C@H]3CCCN(c4ccc(C(F)(F)F)cc4)C3)o2)c1 [Example 133] | 8.10
Oc1ccc(-c2ccnc(N[C@@H]3CCCC[C@H]3N[C@H]3CCCN(c4ccc(C(F)(F)F)cc4)C3)c2)cc1 [Example 135] | 7.57
CCOC(=O)Nc1cccc(-c2ccnc(N[C@@H]3CCCC[C@H]3N[C@H]3CCCN(c4ccc(C(F)(F)F)cc4)C3)c2)c1 [Example 136] | 8.70
